From patent publication US5585367A (priority 1990, dated 1996)
Like-named read-outs stand apart in the source and are kept apart here.

Experiments:
HIV-1 [1] = format: cell-based
HIV-1 [2] = format: cell-based; remark: listed apart in the source
[3] = tested on: genes "GAG", "LTR" and "ENV" of the HIV-1 provirus; assay: Integration of viral genome into chromosomic DNA of Supt-1 cells (PCR); format: cell-based; conditions: HIV-1 treated with 1/100 dilution
Experimental: By means of a genetic amplification through a thermostable polymerase, the presence of genes "GAG", "LTR" and "ENV" of the HIV-1 provirus is evidenced. This method is called P.C.R. Polymerase chain Reaction) (Chin-Yih Ou et al., Sciences 239, 295-297, 1988).
Said method is applied for detecting HIV-1 provirus in the genome of Supt-1 cells inoculated with HIV-1 virus incubated with […] (dilution 1/100), as described in Example 8
Amplified oligonucleotides, UV visible by means of ethidium bromide appear only in the tubes corresponding to an inoculation with HIV-1 viruses which were not treated with the active substance.
One proceeds as in Example 11(c). The search of genes "GAG", "LTR" and "ENV" has been made in cellular cultures inoculated with a virus incubated for 15 minutes with the active substance. This search is appeared as being negative, and thus it can be concluded that 1.1'-azobisformamide at the dosage of 35 μgr/ml protects the cells against infection by HIV-1.
Examples 10c and 11c disclose a more accurate method than the ELISA test for examining whether the inoculated cells contain HIV-1 at the end of the assay, i.e., the PCR-Method.

[4] = tested on: lymphocyte cellular lines; assay: Toxicity for human lymphocyte cellular lines; format: cell-based; conditions: even after 24 hours
[5] = tested on: Molt-3 cells infected by HTLVIII-B
[6] = tested on: human blood cell glutathione; conditions: N. S. KOSOWER et al. (1969); cited from earlier work
in vitro [7] = conditions: human, supt-1 cells
in vitro [8] = conditions: human, molt-3 cells, % of dead cells
[9] = tested on: HIV strain of the patient; assay: Resistance of the patient's HIV strain (course of treatment; gene sequencing of viral RNA); conditions: for genetic resistance of the patient's strain: mutations in codons 67, 70, 184, 215 and 219; for resistance, concomitant medication: patient of Example 27, DDI, then DDI and DDC
wild HIV-1 strains = assay: Phenotypic resistance of wild HIV-1 strains; format: cell-based; conditions: strains marked * (Wild A, B, C, F, G)

SMILES: CN(C)C(=O)N=NC(=O)N(C)C [1.1'-azobisdimethylformamide]
- effectiveness up to the 25th day (HIV-1 [1]): effectiveness of this active substance is maintained
- infection of sound Supt-1 cells by treated HIV (HIV-1 [1]): is not able to infect the sound Supt-1 cells
- protection of Supt-1 cells (HIV-1 [1]): has this effect
- cytopathogenic effect (HIV-1 [2]): no cytopathogenic effect was observed
- HIV-1 provirus within Supt-1 cells [3]: totally absent
- toxicity for human lymphocyte cellular lines [4]: no toxicity
- cellular viability of Supt-1 cells (Supt-1 cells): does not decrease the cellular viability
- toxicity against sound Supt-1 cells (Supt-1 cells): no toxicity against sound Supt-1 cells
- toxicity for human Supt-1 cells (Supt-1 cells): no toxicity
- mortality of the infected cells ([5]; after 30 minutes, even at dilution 1/3000): mortality of the infected cells is doubled
- Number of dead cells ([5]; dilution 1/500, 1 min): 9
- Number of living cells ([5]; dilution 1/500, 1 min): 62
- Number of dead cells ([5]; dilution 1/500, 10 min): 11
- Number of living cells ([5]; dilution 1/500, 10 min): 67
- Number of dead cells ([5]; dilution 1/500, 30 min): 12
- Number of living cells ([5]; dilution 1/500, 30 min): 58
- Number of dead cells ([5]; dilution 1/1500, 30 min): 15
- Number of living cells ([5]; dilution 1/1500, 30 min): 70
- Number of dead cells ([5]; dilution 1/3000, 30 min): 12
- Number of living cells ([5]; dilution 1/3000, 30 min): 58
- % of dead cells ([5]; human, molt-3 cells, 0.5 h): 17.6%
- intracellular oxidising action on human blood cell glutathione [6]: intracellular oxidising action on human blood cell glutathione
- cytotoxicity at 0 h (in vitro [7]): 26%
- cytotoxicity at 1 h (in vitro [7]): 24%
- cytotoxicity at 5 h (in vitro [7]): 28%
- cytotoxicity at 1 min (in vitro [8]): 12.7%
- cytotoxicity at 10 min (in vitro [8]): 14%
- cytotoxicity at 0.5 h (in vitro [8]): 17.1%

SMILES: Nc1ccn([C@@H]2CS[C@H](CO)O2)c(=O)n1 [3TC]
- genetic resistance of the patient's strain [9]: genetically resistant

SMILES: Cc1cn([C@H]2C[C@H](N=[N+]=[N-])[C@@H](CO)O2)c(=O)[nH]c1=O [AZT, 3'-azido-3'-desoxythymidine]
- phenotypic resistance to AZT (wild HIV-1 strains): Phenotypically resistant
- genetic resistance of the patient's strain [9]: genetically resistant

SMILES: Nc1ccn([C@H]2CC[C@@H](CO)O2)c(=O)n1 [DDC]
- genetic resistance of the patient's strain [9]: genetically resistant
- resistance, concomitant medication [9]: stopped because of resistance

SMILES: O=c1[nH]cnc2c1ncn2[C@H]1CC[C@@H](CO)O1 [DDI]
- genetic resistance of the patient's strain [9]: genetically resistant
- resistance, concomitant medication [9]: stopped because of resistance
